In patent US20090082350A1, “SOLUBLE EPOXIDE HYDROLASE INHIBITORS” (Arete Therapeutics, Inc., priority 2007, published 2009):

System: not given
Assay: not given
Conditions: not given

Compared with COc1ccc(-c2cc(NC(=O)Nc3ccc(C(F)(F)F)cc3)[nH]n2)cc1 [Compound 2, 1-(3-(4-methoxyphenyl)-1H-pyrazol-5-yl)-3-(4-(trifluoromethyl)phenyl)urea], COc1ccc(-c2cc(NC(=O)Nc3cccc(C(F)(F)F)c3)[nH]n2)cc1 [Compound 5, 1-(3-(4-methoxyphenyl)-1H-pyrazol-5-yl)-3-(3-(trifluoromethyl)phenyl)urea] is lower in melting point: 228 to 231 °C for the first, 189 to 194 °C for the second.

Compared with O=C(Nc1ccc(C(F)(F)F)cc1)Nc1ccc(C(=O)N2CCOCC2)s1 [Compound 3, 1-(5-(morpholine-4-carbonyl)thiophen-2-yl)-3-(4-(trifluoromethyl)phenyl)urea], O=C(Nc1ccc(Cl)cc1)Nc1ccc(C(=O)N2CCOCC2)s1 [Compound 11, 1-(4-chlorophenyl)-3-(5-(morpholine-4-carbonyl)thiophen-2-yl)urea] is lower in melting point: 250 to 253 °C for the first, 242 to 245 °C for the second.

Compared with CC(=O)Nc1ccc(NC(=O)NC23CC4CC(CC(C4)C2)C3)cn1 [Compound 4, N-(5-(3-adamantylureido)pyridin-2-yl)acetamide], COc1ccc(NC(=O)NC23CC4CC(CC(C4)C2)C3)cn1 [Compound 7, 1-adamantan-1-yl-3-(6-methoxypyridin-3-yl)urea] is lower in melting point: 252 to 254 °C for the first, 205 to 211 °C for the second.

Compared with CC(=O)Nc1ccc(NC(=O)Nc2ccc(Cl)cc2)cn1 [Compound 6, N-(5-(3-(4-chlorophenyl)ureido)pyridin-2-yl)acetamide], O=C(Nc1ccc(Cl)cc1)Nc1cccc(C(=O)N2CCOCC2)n1 [Compound 18, 1-(4-chlorophenyl)-3-(6-(morpholine-4-carbonyl)pyridin-2-yl)urea] is lower in melting point: 269 to 271 °C for the first, 205 to 208 °C for the second.

Compared with O=C(Nc1ccc(C(F)(F)F)cc1)Nc1ccc(C(=O)N2CCOCC2)cn1 [Compound 8, 1-(5-(morpholine-4-carbonyl)pyridin-2-yl)-3-(4-(trifluoromethyl)phenyl)urea], O=C(Nc1ccc(C(F)(F)F)cc1)Nc1cc(C(=O)N2CCOCC2)ccn1 [Compound 17, 1-(4-(morpholine-4-carbonyl)pyridin-2-yl)-3-(4-(trifluoromethyl)phenyl)urea] is lower in melting point: 233 to 237 °C for the first, 200 to 206 °C for the second.

First: COc1ccc(-c2nnc(NC(=O)NC34CC5CC(CC(C5)C3)C4)s2)cc1 [Compound 9, 1-adamantan-1-yl-3-(5-(4-methoxyphenyl)-1,3,4-thiadiazol-2-yl)urea]
Second: O=C(Nc1ccc(Oc2ccccc2)nc1)NC12CC3CC(CC(C3)C1)C2 [Compound 16, 1-adamantan-1-yl-3-(6-phenoxypyridin-3-yl)urea]
The melting point of the first is higher: 324 to 328 °C for the first, 185 to 188 °C for the second.

First: COc1ccc(-c2nnc(NC(=O)Nc3cccc(C(F)(F)F)c3)s2)cc1 [Compound 10, 1-(5-(4-methoxyphenyl)-1,3,4-thiadiazol-2-yl)-3-(3-(trifluoromethyl)phenyl)urea]
Second: COc1ccc(-c2cc(NC(=O)Nc3ccc(Cl)cc3)on2)cc1 [Compound 22, 1-(4-chlorophenyl)-3-(3-(4-methoxyphenyl)isoxazol-5-yl)urea]
The melting point of the first is higher: 331 to 336 °C for the first, 165 to 170 °C for the second.

First: O=C(Nc1ccc(C(F)(F)F)cc1)Nc1cccc(C(=O)N2CCOCC2)n1 [Compound 12, 1-(6-(morpholine-4-carbonyl)pyridin-2-yl)-3-(4-(trifluoromethyl)phenyl)urea]
Second: O=C(Nc1cccc(C(F)(F)F)c1)Nc1cccc(C(=O)N2CCOCC2)n1 [Compound 20, 1-(6-(morpholine-4-carbonyl)pyridin-2-yl)-3-(3-(trifluoromethyl)phenyl)urea]
The melting point of the first is higher: 208 to 210 °C for the first, 175 to 179 °C for the second.

First: O=C(Nc1ccc(C(F)(F)F)cc1)Nc1cc(C(=O)N2CCOCC2)cs1 [Compound 13, 1-(4-(morpholine-4-carbonyl)thiophen-2-yl)-3-(4-(trifluoromethyl)phenyl)urea]
Second: O=C(Nc1cccc(C(F)(F)F)c1)Nc1cc(C(=O)N2CCOCC2)cs1 [Compound 14, 1-(4-(morpholine-4-carbonyl)thiophen-2-yl)-3-(3-(trifluoromethyl)phenyl)urea]
The melting point of the first is higher: 250 to 253 °C for the first, 210 to 215 °C for the second.

Compared with O=C(Nc1ccc(Cl)cc1)Nc1cc(C(=O)N2CCOCC2)ccn1 [Compound 19, 1-(4-chlorophenyl)-3-(4-(morpholine-4-carbonyl)pyridin-2-yl)urea], O=C(Nc1ccc(C(F)(F)F)cc1)Nc1cncc(C(=O)N2CCOCC2)c1 [Compound 23, 1-(5-(morpholine-4-carbonyl)pyridin-3-yl)-3-(4-(trifluoromethyl)phenyl)urea] is lower in melting point: 189 to 192 °C for the first, 114 to 118 °C for the second.

For O=C(Nc1cncc(C(=O)N2CCOCC2)c1)Nc1cccc(C(F)(F)F)c1 [Compound 24, 1-(5-(morpholine-4-carbonyl)pyridin-3-yl)-3-(3-(trifluoromethyl)phenyl)urea], the melting point was 75 to 80 °C.

System: soluble epoxide hydrolase (sEH)
Assay: Fluorescent assay for mouse and human soluble epoxide hydrolase (CMNPC substrate)
Assay type: biochemical
Conditions: inhibitor concentration 50 nM
Text: Fluorescent Assay for Mouse and Human Soluble Epoxide Hydrolase
Recombinant mouse sEH (MsEH) and human sEH (HsEH) were produced in a baculovirus expression system as previously reported. Grant et al., J. Biol. Chem., 268:17628-17633 (1993); Beetham et al., Arch. Biochem. Biophys., 305:197-201 (1993). The expressed proteins were purified from cell lysate by affinity chromatography. Wixtrom et al., Anal. Biochem., 169:71-80 (1988). Protein concentration was quantified using the Pierce BCA assay using bovine serum albumin as the calibrating standard. The preparations were at least 97% pure as judged by SDS-PAGE and scanning densitometry. They contained no detectable esterase or glutathione transferase activity which can interfere with the assay. The assay was also evaluated with similar results in crude cell lysates or homogenate of tissues.
The IC50s for each inhibitor were according to the following procedure:
Cyano(2-methoxynaphthalen-6-yl)methyl (3-phenyloxiran-2-yl)methyl carbonate (CMNPC; Jones P. D. et. al.; Analytical Biochemistry 2005; 343: pp. 66-75)
Bis/Tris HCl 25 mM pH 7.0 containing 0.1 mg/mL of BSA (buffer A)
CMNPC at 0.25 mM in DMSO.
Mother solution of enzyme in buffer A (Mouse sEH at 6 μg/mL and Human sEH at […]).
Inhibitor dissolved in DMSO at the appropriate concentration.
In a black 96 well plate, fill all the wells with 150 μL of buffer A.
Add 2 μL of DMSO in well A2 and A3, and then add 2 μL of inhibitor solution in A1 and A4 through A12.
Add […] of buffer A in row A, then mix several time and transfer 150 L to row B. Repeat this operation up to row H. The 150 L removed from row H go to the trash.
Add […] of buffer A in column 1 and 2, then add […] of enzyme solution to column 3 to 12.
Incubate the plate for 5 minutes in the plate reader at 30° C.
During incubation prepare the working solution of substrate by mixing 3.68 mL of buffer A (4×0.920 mL) with 266 μL (2×133 μL) of substrate solution).
At t=0, add 30 L of working substrate solution with multi-channel pipette labeled “Briggs 303” and start the reading ([S]final: 5 μM).
Read with ex: 330 nm (20 nm) and em: 465 nm (20 nm) every 30 second for 10 minutes. The velocities are used to analyze and calculate the IC50s.

First: O=C(Nc1ccc(C(F)(F)F)cc1)Nc1ccc(C(=O)N2CCOCC2)s1 [Compound 3, 1-(5-(morpholine-4-carbonyl)thiophen-2-yl)-3-(4-(trifluoromethyl)phenyl)urea]
Second: O=C(Nc1ccc(Cl)cc1)Nc1ccc(C(=O)N2CCOCC2)s1 [Compound 11, 1-(4-chlorophenyl)-3-(5-(morpholine-4-carbonyl)thiophen-2-yl)urea]
The “% Inh” value of the first is higher: 98% for the first, 76% for the second.

Compared with CC(=O)Nc1ccc(NC(=O)NC23CC4CC(CC(C4)C2)C3)cn1 [Compound 4, N-(5-(3-adamantylureido)pyridin-2-yl)acetamide], COc1ccc(NC(=O)NC23CC4CC(CC(C4)C2)C3)cn1 [Compound 7, 1-adamantan-1-yl-3-(6-methoxypyridin-3-yl)urea] is lower in “% Inh” value: 77% for the first, 64% for the second.

Going from O=C(Nc1ccc(C(F)(F)F)cc1)Nc1cc(C(=O)N2CCOCC2)cs1 [Compound 13, 1-(4-(morpholine-4-carbonyl)thiophen-2-yl)-3-(4-(trifluoromethyl)phenyl)urea] to O=C(Nc1ccc(C(F)(F)F)cc1)Nc1ccc(Oc2ccccc2)nc1 [Compound 15, 1-(6-phenoxypyridin-3-yl)-3-(4-(trifluoromethyl)phenyl)urea], the “% Inh” value rises from 73% to 90%.

First: O=C(Nc1ccc(Oc2ccccc2)nc1)NC12CC3CC(CC(C3)C1)C2 [Compound 16, 1-adamantan-1-yl-3-(6-phenoxypyridin-3-yl)urea]
Second: CCOC(=O)c1nnc(NC(=O)NC23CC4CC(CC(C4)C2)C3)s1 [Compound 26, ethyl 5-(3-adamantylureido)-1,3,4-thiadiazole-2-carboxylate]
The “% Inh” value of the first is higher: 95% for the first, 91% for the second.

Same assay, conditions: inhibitor concentration 500 nM

Going from COc1ccc(-c2cc(NC(=O)Nc3ccc(C(F)(F)F)cc3)[nH]n2)cc1 [Compound 2, 1-(3-(4-methoxyphenyl)-1H-pyrazol-5-yl)-3-(4-(trifluoromethyl)phenyl)urea] to O=C(Nc1ccc(C(F)(F)F)cc1)Nc1ccc(C(=O)N2CCOCC2)cn1 [Compound 8, 1-(5-(morpholine-4-carbonyl)pyridin-2-yl)-3-(4-(trifluoromethyl)phenyl)urea], the “% Inh” value falls from 89% to 69%.

First: CC(=O)Nc1ccc(NC(=O)Nc2ccc(Cl)cc2)cn1 [Compound 6, N-(5-(3-(4-chlorophenyl)ureido)pyridin-2-yl)acetamide]
Second: O=C(Nc1ccc(Cl)cc1)Nc1cc(C(=O)N2CCOCC2)ccn1 [Compound 19, 1-(4-chlorophenyl)-3-(4-(morpholine-4-carbonyl)pyridin-2-yl)urea]
The “% Inh” value of the first is higher: 87% for the first, 72% for the second.

Going from O=C(Nc1ccc(C(F)(F)F)cc1)Nc1cc(C(=O)N2CCOCC2)ccn1 [Compound 17, 1-(4-(morpholine-4-carbonyl)pyridin-2-yl)-3-(4-(trifluoromethyl)phenyl)urea] to O=C(Nc1ccc(C(F)(F)F)cc1)Nc1cncc(C(=O)N2CCOCC2)c1 [Compound 23, 1-(5-(morpholine-4-carbonyl)pyridin-3-yl)-3-(4-(trifluoromethyl)phenyl)urea], the “% Inh” value falls from 91% to 75%.

For CCOC(=O)c1cnc(NC(=O)NC23CC4CC(CC(C4)C2)C3)s1 [Compound 21, ethyl 2-(3-adamantylureido)thiazole-5-carboxylate], the “% Inh” value was 97%.

Same assay, conditions: inhibitor concentration 5000 nM

First: COc1ccc(-c2cc(NC(=O)NC34CC5CC(CC(C5)C3)C4)[nH]n2)cc1 [Compound 1, 1-adamantan-1-yl-3-(3-(4-methoxyphenyl)-1H-pyrazol-5-yl)urea]
Second: COc1ccc(-c2cc(NC(=O)Nc3cccc(C(F)(F)F)c3)[nH]n2)cc1 [Compound 5, 1-(3-(4-methoxyphenyl)-1H-pyrazol-5-yl)-3-(3-(trifluoromethyl)phenyl)urea]
The “% Inh” value of the first is lower: 89% for the first, 92% for the second.

Going from O=C(Nc1cccc(C(F)(F)F)c1)Nc1cc(C(=O)N2CCOCC2)cs1 [Compound 14, 1-(4-(morpholine-4-carbonyl)thiophen-2-yl)-3-(3-(trifluoromethyl)phenyl)urea] to O=C(Nc1cncc(C(=O)N2CCOCC2)c1)Nc1cccc(C(F)(F)F)c1 [Compound 24, 1-(5-(morpholine-4-carbonyl)pyridin-3-yl)-3-(3-(trifluoromethyl)phenyl)urea], the “% Inh” value falls from 89% to 60%.

For COc1ccc(-c2cc(NC(=O)Nc3ccc(Cl)cc3)on2)cc1 [Compound 22, 1-(4-chlorophenyl)-3-(3-(4-methoxyphenyl)isoxazol-5-yl)urea], the “% Inh” value was 92%.

Same assay, conditions: inhibitor concentration 12500 nM

In the case of COc1ccc(-c2nnc(NC(=O)Nc3cccc(C(F)(F)F)c3)s2)cc1 [Compound 10, 1-(5-(4-methoxyphenyl)-1,3,4-thiadiazol-2-yl)-3-(3-(trifluoromethyl)phenyl)urea], the “% Inh” value is reported as 39%.

Same assay, conditions: inhibitor concentration 50000 nM

Going from COc1ccc(-c2nnc(NC(=O)NC34CC5CC(CC(C5)C3)C4)s2)cc1 [Compound 9, 1-adamantan-1-yl-3-(5-(4-methoxyphenyl)-1,3,4-thiadiazol-2-yl)urea] to O=C(Nc1ncc(C(=O)O)s1)NC12CC3CC(CC(C3)C1)C2 [Compound 25, 2-(3-adamantylureido)thiazole-5-carboxylic acid], the “% Inh” value rises from 37% to 81%.

O=C(Nc1ccc(C(F)(F)F)cc1)Nc1cccc(C(=O)N2CCOCC2)n1 [Compound 12, 1-(6-(morpholine-4-carbonyl)pyridin-2-yl)-3-(4-(trifluoromethyl)phenyl)urea] and O=C(Nc1cccc(C(F)(F)F)c1)Nc1cccc(C(=O)N2CCOCC2)n1 [Compound 20, 1-(6-(morpholine-4-carbonyl)pyridin-2-yl)-3-(3-(trifluoromethyl)phenyl)urea] are the same in “% Inh” value: 96% for the first, 96% for the second.

In the case of O=C(Nc1ccc(Cl)cc1)Nc1cccc(C(=O)N2CCOCC2)n1 [Compound 18, 1-(4-chlorophenyl)-3-(6-(morpholine-4-carbonyl)pyridin-2-yl)urea], the “% Inh” value is reported as 87%.
